Laboratory results as given in ChEMBL document CHEMBL5346896, “Development of indolealkylamine derivatives as potential multi-target agents for COVID-19 treatment” (Eur J Med Chem, 2023).

System: SARS-CoV-2
Assay: Antiviral activity against SARS-CoV-2 spike pseudotyped lentivirus infected in HEK293 cells expressing human ACE2 assessed as inhibition of viral entry into cells preincubated with cell for 1 hrs followed by viral infection for 1 hrs and further replaced with fresh medium and measured 48 hrs post transduction by luminescence based luciferase reporter assay
Format: functional, organism-based, HEK293T
Conditions: Severe acute respiratory syndrome coronavirus 2, HEK-293T

SMILES	IC50 [nM]
COC(=O)NCCc1c(C(O)c2ccccc2)[nH]c2ccc(OC)cc12 (configuration not stated)	~1000
COc1ccc2[nH]c(C(O)c3ccc(Cl)cc3)c(CCNC(C)=O)c2c1 (configuration not stated)	~1000
